Where two headings read alike, the source gives them in different places.
Details: amide bond, DMF
[1] = PyBOP/HOBt/NMM, 16.0 h, 17 steps
[2] = PyBOP/HOBt/NMM, 16.0 h, 15 steps

C[C@@H]1NC(=O)CNC(=O)[C@H](CC(N)=O)NC(=O)[C@H](Cc2ccc(O)cc2)NC(=O)[C@@H]2CCCN2C(=O)[C@@H]2C[C@@H](O)CN2C(=O)CNC1=O [cyclo(-Gly-Ala-Gly-Hyp-Pro-Tyr-Asn-)]
ring closure, yield of all isomers [1]: 6.2%

NC(=O)C[C@@H]1NC(=O)CNC(=O)[C@H](Cc2ccc(O)cc2)NC(=O)[C@H](CC(N)=O)NC(=O)CNC(=O)[C@H](Cc2ccc(O)cc2)NC1=O [cyclo(-Tyr-Gly-Asn-Tyr-Gly-Asn-)]
ring closure, yield of all isomers (PyBOP, 16 steps): 14%

C[C@@H]1NC(=O)[C@H](CO)NC(=O)[C@H](C)NC(=O)[C@H](Cc2ccc(O)cc2)NC(=O)[C@H](CC(N)=O)NC(=O)CNC1=O [cyclo(-Tyr-Ala-Ser-Ala-Gly-Asn-)]
ring closure, yield of all isomers [2]: 4.3%

C[C@@H]1NC(=O)CNC(=O)[C@@H]2C[C@@H](O)CN2C(=O)[C@@H]2CCCN2C(=O)[C@H](Cc2ccc(O)cc2)NC(=O)[C@H](CC(N)=O)NC(=O)CNC1=O [Cyclo(Tyr-Pro-4Hyp-Gly-Ala-Gly-Asn)]
ring closure, yield of all isomers [1]: 7%

C[C@@H]1NC(=O)CNC(=O)[C@H](CCC(N)=O)NC(=O)[C@H](Cc2ccc(O)cc2)NC(=O)[C@@H]2CCCN2C(=O)[C@@H]2C[C@@H](O)CN2C(=O)CNC1=O [cyclo(-Gly-Ala-Gly-Hyp-Pro-Tyr-Gln-)]
ring closure, yield of all isomers [1]: 6.6%

C[C@@H]1NC(=O)CNC(=O)[C@@H]2C[C@@H](O)CN2C(=O)[C@@H]2CCCN2C(=O)[C@H](Cc2ccc(O)cc2)NC(=O)[C@H](CC(N)=O)NC1=O [Cyclo(Tyr-Pro-4Hyp-Gly-Ala-Asn)]
ring closure, yield of all isomers [2]: 4.4%
